# Experimental data as given in US10954488B2, “Extract of undifferentiated cells of Mimosa pudica and uses thereof in dermo-cosmetics” (PIERRE FABRE DERMO-COSMETIQUE, priority 2016, dated 2021).
# Columns and labels:
# [1] = test system: nitrite production (NO synthesis induced by iNOS) in RAW264.7 cells; experiment: Nitrite assay (Griess) in LPS-activated RAW264.7 macrophages; type: cell-based; settings: Mus musculus, 1 μM dexamethasone 1 h before 0.2 μg/mL LPS, 24 h, read-out: inhibition of nitrite production (% i)
# Description: (§1) In this example, we compare the anti-inflammatory activity of 2 Mimosa pudica extracts (E11 and E13). Extract E11 comes from ethyl acetate extraction of the dried and crushed Mimosa pudica leaves and extract E13 comes from extraction with the same solvent of the crushed materials derived from Mimosa pudica plant cell culture without bioconversion in an Erlenmeyer flask. The 2 extracts were weighed after evaporation of the solvent to dryness. They were taken up in DMSO. To evaluate and compare the anti-inflammatory activity of the 2 extracts in the same concentrations, we have an in vitro pharmacological test which consists in stimulating murine macrophages, RAW264.7 cells, that express on their surface the TLR4 receptor by the bacterial LPS according to (Kang et al. 2002. J Pharmacol Exp Ther. 302:138-144). Several parameters were studied and compared to a reference anti-inflammatory, dexamethasone: • nitrite production by the Griess technique. […]
# The level of NO synthesis is evaluated in fresh or frozen (−80° C.) cell supernatants, without affecting the assay. The principle of the assay is based on the Griess (diazotization) reaction which produces a pink azo compound with absorbance at 540 nm.
# (§2) Concentrations are expressed as averages. […]
# [2] = test system: IL-6 secretion in RAW264.7 cells; experiment: IL6 assay by ELISA in LPS-activated RAW264.7 macrophages; type: cell-based; settings: Mus musculus, 1 μM dexamethasone 1 h before 0.2 μg/mL LPS, 24 h, read-out: inhibition of IL-6 secretion (% i)
# Description: In this example, we compare the anti-inflammatory activity of 2 Mimosa pudica extracts (E11 and E13). Extract E11 comes from ethyl acetate extraction of the dried and crushed Mimosa pudica leaves and extract E13 comes from extraction with the same solvent of the crushed materials derived from Mimosa pudica plant cell culture without bioconversion in an Erlenmeyer flask. The 2 extracts were weighed after evaporation of the solvent to dryness. They were taken up in DMSO. To evaluate and compare the anti-inflammatory activity of the 2 extracts in the same concentrations, we have an in vitro pharmacological test which consists in stimulating murine macrophages, RAW264.7 cells, that express on their surface the TLR4 receptor by the bacterial LPS according to (Kang et al. 2002. J Pharmacol Exp Ther. 302:138-144). Several parameters were studied and compared to a reference anti-inflammatory, dexamethasone: • nitrite production by the Griess technique. The nitrite level reflects the level of NO synthesis induced by inducible […] (iNOS). • cytokine secretion: interleukin-6 by ELISA • TNF-alpha production by multiplex assay Cell Culture
# RAW264.7 cells are mouse macrophages in lineage. […]
# as §2
# [3] = test system: TNF-alpha production in RAW264.7 cells; experiment: TNF-alpha Luminex assay in LPS-activated RAW264.7 macrophages; type: cell-based; settings: Mus musculus, 1 μM dexamethasone 1 h before 0.2 μg/mL LPS, 24 h, read-out: inhibition of TNF-alpha production (% i)
# Description: as §1, with “302:138-144).” for “302:138-144). Several parameters were studied and compared to a reference anti-inflammatory, dexamethasone: • nitrite production by the Griess technique.”
# Simultaneous assay of TNF-alpha in the cell supernatants was performed using the Luminex xMAP (multi-analyte profiling) technology which is based on the principles of flow cytometry and ELISA in a 96-well microplate. The microbeads used as substrate incorporate two fluorochromes in a precise ratio, which gives them an identifying colour code (different fluorescences). […] The second laser, green, (λ=532 nm) excites the reporter fluorochrome attached to the specific detection antibody in order to quantify the cytokine. […]
# as §2
# [4] = test system: DEFB103A (Defensin, beta 103B); experiment: In vitro model of induced atopic dermatitis, RT-qPCR: DEFB103A; type: cell-based, human; settings: NHEK + Poly(I:C), IL4, IL13, 24 h; 0.28 mM DEXA; control NHEK = 1
# Experimental: (§3) The pharmacological model was described by Castex-Rizzi et al. (Br J Dermatol. 2014. 170 Suppl 1:12-8)
# (§4) PCC extracts collected from crushed, dried, standardized Mimosa pudica culture medium W01D15 (with bioconversion) were dissolved/diluted in solution in 40% EtOH at initial concentrations of 75 mg/ml. The compounds were solubilized extemporaneously for viability tests as well as at the appropriate dose in order to measure pharmacological action on the model of induced atopic dermatitis.
# (§5) Normal human epidermal keratinocytes (NHEKs) from Lonza. The cells are amplified under standard culture conditions.
# (§6) NHEK cells are seeded and cultured in Keratinocyte-SFM culture medium. […]
# (§7) Extraction was carried out using RNABle (Eurobio) and the RNeasy Mini Kit from QIAGEN. The total RNAs extracted are assayed on a spectrophotometer (NanoDrop, ND1000, Thermo Scientific) and their qualities analysed on agarose gel.
# (§8) Real-time PCR is a precise, sensitive and rapid method that allows the relative quantification of the rate of expression of a target gene relative to that of a ubiquitously expressed reference gene. This technique makes it possible to quantify messenger RNA. […] Incorporation of a fluorophore (SYBR Green) during the hybridization step of exponential amplification allows quantification and real-time monitoring of the amount of neo-formed amplification product. […]
# [5] = test system: RNASE7 (Ribonuclease, RNase A family, 7); experiment: In vitro model of induced atopic dermatitis, RT-qPCR: RNASE7; type: cell-based, human; settings: NHEK + Poly(I:C), IL4, IL13, 24 h; 0.28 mM DEXA; control NHEK = 1
# Experimental: as §3, §4, §5, §6, §7, §8
# [6] = test system: S100A7 (S100 calcium binding protein A7); experiment: In vitro model of induced atopic dermatitis, RT-qPCR: S100A7; type: cell-based, human; settings: NHEK + Poly(I:C), IL4, IL13, 24 h; 0.28 mM DEXA; control NHEK = 1
# Experimental: as §3, §4, §5, §6, §7, §8
# [7] = test system: TLR3 (Toll-like receptor 3); experiment: In vitro model of induced atopic dermatitis, RT-qPCR: TLR3; type: cell-based, human; settings: NHEK + Poly(I:C), IL4, IL13, 24 h; 0.28 mM DEXA; control NHEK = 1
# Experimental: as §3, §4, §5, §6, §7, §8
# [8] = test system: IFNB1 (Interferon, beta 1, fibroblast); experiment: In vitro model of induced atopic dermatitis, RT-qPCR: IFNB1; type: cell-based, human; settings: NHEK + Poly(I:C), IL4, IL13, 24 h; 0.28 mM DEXA; control NHEK = 1
# Experimental: as §3, §4, §5, §6, §7, §8
# [9] = test system: IL1A (Interleukin 1, alpha); experiment: In vitro model of induced atopic dermatitis, RT-qPCR: IL1A; type: cell-based, human; settings: NHEK + Poly(I:C), IL4, IL13, 24 h; 0.28 mM DEXA; control NHEK = 1
# Experimental: as §3, §4, §5, §6, §7, §8
# [10] = test system: IL1B (Interleukin 1, beta); experiment: In vitro model of induced atopic dermatitis, RT-qPCR: IL1B; type: cell-based, human; settings: NHEK + Poly(I:C), IL4, IL13, 24 h; 0.28 mM DEXA; control NHEK = 1
# Experimental: as §3, §4, §5, §6, §7, §8
# [11] = test system: IL4R (Interleukin 4 receptor); experiment: In vitro model of induced atopic dermatitis, RT-qPCR: IL4R; type: cell-based, human; settings: NHEK + Poly(I:C), IL4, IL13, 24 h; 0.28 mM DEXA; control NHEK = 1
# Experimental: as §3, §4, §5, §6, §7, §8
# [12] = test system: TSLP (Thymic stromal lymphopoietin); experiment: In vitro model of induced atopic dermatitis, RT-qPCR: TSLP; type: cell-based, human; settings: NHEK + Poly(I:C), IL4, IL13, 24 h; 0.28 mM DEXA; control NHEK = 1
# Experimental: as §3, §4, §5, §6, §7, §8
# [13] = test system: CCL13 (Chemokine (C-C motif) ligand 13); experiment: In vitro model of induced atopic dermatitis, RT-qPCR: CCL13; type: cell-based, human; settings: NHEK + Poly(I:C), IL4, IL13, 24 h; 0.28 mM DEXA; control NHEK = 1
# Experimental: as §3, §4, §5, §6, §7, §8
# [14] = test system: CCL11 (Chemokine (C-C motif) ligand 11); experiment: In vitro model of induced atopic dermatitis, RT-qPCR: CCL11; type: cell-based, human; settings: NHEK + Poly(I:C), IL4, IL13, 24 h; 0.28 mM DEXA; control NHEK = 1
# Experimental: as §3, §4, §5, §6, §7, §8
# [15] = test system: CCL20 (Chemokine (C-C motif) ligand 20); experiment: In vitro model of induced atopic dermatitis, RT-qPCR: CCL20; type: cell-based, human; settings: NHEK + Poly(I:C), IL4, IL13, 24 h; 0.28 mM DEXA; control NHEK = 1
# Experimental: as §3, §4, §5, §6, §7, §8
# [16] = test system: CCL27 (Chemokine (C-C motif) ligand 27); experiment: In vitro model of induced atopic dermatitis, RT-qPCR: CCL27; type: cell-based, human; settings: NHEK + Poly(I:C), IL4, IL13, 24 h; 0.28 mM DEXA; control NHEK = 1
# Experimental: as §3, §4, §5, §6, §7, §8
# [17] = test system: CCL5 (Chemokine (C-C motif) ligand 5); experiment: In vitro model of induced atopic dermatitis, RT-qPCR: CCL5; type: cell-based, human; settings: NHEK + Poly(I:C), IL4, IL13, 24 h; 0.28 mM DEXA; control NHEK = 1
# Experimental: as §3, §4, §5, §6, §7, §8
# IL15 (Interleukin 15) = experiment: In vitro model of induced atopic dermatitis, RT-qPCR: IL15; type: cell-based, human; settings: NHEK + Poly(I:C), IL4, IL13, 24 h; 0.28 mM DEXA; control NHEK = 1
# Experimental: as §3, §4, §5, §6, §7, §8
# IL8 (Interleukin 8) = experiment: In vitro model of induced atopic dermatitis, RT-qPCR: IL8; type: cell-based, human; settings: NHEK + Poly(I:C), IL4, IL13, 24 h; 0.28 mM DEXA; control NHEK = 1
# Experimental: as §3, §4, §5, §6, §7, §8
# CX3CL1 (Fractalkine) = experiment: In vitro model of induced atopic dermatitis, RT-qPCR: CX3CL1; type: cell-based, human; settings: NHEK + Poly(I:C), IL4, IL13, 24 h; 0.28 mM DEXA; control NHEK = 1
# Experimental: as §3, §4, §5, §6, §7, §8
smiles,measurement,setting,value
C[C@@H]1C[C@H]2[C@@H]3CCC4=CC(=O)C=C[C@]4(C)[C@@]3(F)[C@@H](O)C[C@]2(C)[C@@]1(O)C(=O)CO [dexamethasone],inhibition at 1 µM,[1],35%
same,inhibition at 1 µM,[2],38%
same,inhibition at 1 µM,[3],16%
same,relative expression (RQ) of DEFB103A,[4],107.56
same,relative expression (RQ) of RNASE7,[5],43.23
same,relative expression (RQ) of S100A7,[6],79.12
same,relative expression (RQ) of TLR3,[7],2.79
same,relative expression (RQ) of IFNB1,[8],1.90
same,relative expression (RQ) of IL1A,[9],8.54
same,relative expression (RQ) of IL1B,[10],2.63
same,relative expression (RQ) of IL4R,[11],7.03
same,relative expression (RQ) of TSLP,[12],1.80
same,relative expression (RQ) of CCL13,[13],1.98
same,relative expression (RQ) of CCL11,[14],1.14
same,relative expression (RQ) of CCL20,[15],28.94
same,relative expression (RQ) of CCL27,[16],0.71
same,relative expression (RQ) of CCL5,[17],49.90
same,relative expression (RQ) of IL15,IL15 (Interleukin 15),29.16
same,relative expression (RQ) of IL8,IL8 (Interleukin 8),7.89
same,relative expression (RQ) of CX3CL1,CX3CL1 (Fractalkine),36.63
